One data set addresses proteasome (Homo sapiens, UniProt Q99436). Kind of data set: Trypsin-like inhibitory activity of the proteasome (summary). In kind it is biochemical. The settings on record: proteasome source not stated.
For data set [1], the system named is NF-κB/IκB signaling pathway. Briefly: TNF-α stimulated HEK293 cells, IκBα phosphorylation and degradation. The settings on record: HEK293 cells pre-treated 1 hour, then TNF-α stimulation. In kind it is cell-based, human. From the text:
Treatment of HEK293 cells (human embryonic kidney) with Tumor Necrosis Factor-alpha (TNF-α) induces phosphorylation and proteasome-mediated degradation of IκBα followed by NF-κB activation.

Another data set deals with NF-κB. Briefly: NF-κB/Luc 293 luciferase reporter assay with TNF-α stimulation. The data set is classed as cell-based, human. The settings on record: NF-κB/Luc 293 cells, pretreatment before TNF-α. From the text:
(§1) Furthermore, a stable HEK293 clone (NF-κB/Luc 293) was generated carrying a luciferase reporter gene under the regulation of 5×NF-κB binding sites.

A further data set relates to IκBα, p21 and p27. Kind of data set: Western blot analyses in NF-κB/Luc 293 cells. In kind it is cell-based, human.
Text: as §1
Background: A western blot detects proteins with antibodies after separation by electrophoresis.

The nature of data set [2]: Maximum tolerated dose determination, intravenous, female BALB/c mice. In kind it is in vivo. From the text:
In vivo studies were designed to determine the MTD of Salinosporamide A when administered intravenously to female BALB/c mice.

In data set [3] the target is T1, proteasome chymotrypsin-like activity in Packed Whole Blood Lysate (Mus musculus, UniProt O55234).
T1 construct: The supernatant (Packed Whole Blood Lysate, PWBL) was transferred to a fresh tube; from tissue; host or cells: packed whole blood cells of Swiss-Webster mice, hypotonic lysate
T1 sequence (O55234 60-264): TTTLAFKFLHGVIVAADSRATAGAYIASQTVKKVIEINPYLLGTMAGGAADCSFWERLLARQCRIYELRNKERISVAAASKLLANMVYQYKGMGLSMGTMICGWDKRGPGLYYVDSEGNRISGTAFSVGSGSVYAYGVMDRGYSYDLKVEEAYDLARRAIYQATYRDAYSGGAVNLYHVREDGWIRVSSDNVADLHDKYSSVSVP
Briefly: Whole blood proteasome activity (PWBL assay) after dosing of mice. The data set is classed as in vivo. The settings on record: male Swiss-Webster mice. As to the method:
In brief, frozen whole blood samples were thawed on ice for one hour, and resuspended in 700 μL of ice cold 5 mM EDTA, pH 8.0 in order to lyse the cells by hypotonic shock. This represents approximately 2-3 times the volume of the packed whole blood cells. Lysis was allowed to proceed for one hour, and the cellular debris was removed by centrifugation at 14,000×g for 10 minutes. The supernatant (Packed Whole Blood Lysate, PWBL) was transferred to a fresh tube, and the pellet discarded. Protein concentration of the PWBL was determined by BCA assay (Pierce) using BSA as a standard.
Proteasome activity was determined by measuring the hydrolysis of a fluorogenic substrate specific for the chymotrypsin-like activity of proteasomes (suc-LLVY-AMC, Bachem Cat. 1-1395). […] The reactions were initiated by the addition of 10 μL of 0.4 mM suc-LLVY-AMC (prepared by diluting a 10 mM solution of the peptide in DMSO 1:25 with assay buffer), and incubated in a fluorometer (Labsystems Fluoroskan) at 37° C. Hydrolysis of the substrate results in the release of free AMC, which was measured fluorometrically by using λex=390 nm and λem=460 nm. The rate of hydrolysis in this system is linear for at least one hour. The hydrolysis rate of each sample is then normalized to relative fluorescent units per milligram of protein (RFU/mg).
The vehicle control consisted of 2% DMSO in 10% solutol. […]

Data set [4] deals with Mycobacterium tuberculosis. Kind of data set: Survival assays of Mycobacterium tuberculosis on agar plates after nitrite exposure. In kind it is cell-based. The settings on record: plating on agar after 6 days of exposure; present-tense example without data.
In the next data set the test system is any other known protease. The settings on record: Meng et al., 1999; cited from earlier work.
Where [5] appears, read: NF-κB/Luc 293 cells, Western blot.

By EC50 is commonly meant the midpoint of the concentration-response curve. Compound `C[C@@]12OC(=O)[C@]1([C@@H](O)[C@@H]1C=CCCC1)NC(=O)[C@@H]2CCCl` [Salinosporamide A] showed a trypsin-like inhibitory activity on proteasome of approximately 10 nM. In [1], the “phosphorylated IκBα level” value was “promoted the accumulation of phosphorylated IκBα”. The luciferase activity entry with NF-κB was “decreases activity”. In the data set on IκBα, p21 and p27, the “levels of cell cycle regulatory proteins p21 and p27” value was “increase the levels”. Further, in the data set on IκBα, p21 and p27 (setting [5]), the “degradation of total IκBα” value was “decreased the degradation of total IκBα” and the phosphorylated-IκBα level result is “promoted the accumulation of phosphorylated-IκBα”. Moreover, the behavioral changes entry in data set [2] (during the course of the experiment) is “No behavioral changes were noted”. Further, in data set [2] (i.v. daily for five consecutive days (qdx5)), the well tolerated dose entry was “up to 0.1 mg/kg”. Also, the tolerated dose entry in data set [2] (single intravenous dose (qdx1)) was “up to 0.25 mg/kg”. Moreover, in data set [3] (blood 90 min after administration, dose dependent (FIG. 4)), the “proteasomal activity in PWBL” value was “profound decrease in proteasomal activity in PWBL”. Besides, the “activity upon oral administration (PWBL proteasome inhibition)” value in data set [3] (oral dosing) is on record as “active upon oral administration”. The “antimycobacterial effect of nitrite” value in data set [4] was “able to augment the antimycobacterial effect of nitrite”. The same compound returned an EC50 in the data set “In vitro cytotoxicity” of 10 to 200 nM.

On to `CC[C@H](C)[C@H](NC(=O)[C@H]([C@@H](C)CC)N(C)C(C)=O)C(=O)N[C@H](C(=O)N[C@@H](CC(C)C)C(=O)[C@@]1(C)CO1)[C@@H](C)O` [Epoxomicin], for which the “inhibitory activity towards other proteases” value in the data set with any other known protease is “no inhibitory activity towards any other known protease”.

Source of the values: US20120264678A1, “METHODS OF USING [3.2.0] HETEROCYCLIC COMPOUNDS AND ANALOGS THEREOF FOR TREATING INFECTIOUS DISEASES” (priority 2007, published 2012).
